Measured values taken from US20070099876A1, “Target directed chemotherapy of tumours of the sexual organs” (priority 2003, published 2007).

System: mammary carcinoma of the rat
Test: mammary tumours induced by benzidine in female Wistar rats
Assay type: in vivo
Details: low dosage
Source text: For the development of active agents against tumours of the human sexual organs, an animal model closely similar to human tumours is needed, so that truly significant test results can be accomplished. The known “Huggins tumours” (C. Huggins et al., Rapid induction of mammary carcinoma in the rat and the influence of hormones, J. Exper. Med. 109, 25 (1959)) can be generated and combated easily, e.g. by endocrine manipulations and the usual chemotherapy (e.g. with endoxan®=cyclophosphamide monohydrate). In contrast, the tumours generated by benzidine in female Wistar rats require more time for induction and are (like human mammary tumour) only up to about 50% hormone dependent; they (like human mammary tumour) cannot be influenced effectively by chemotherapeutics and other methods of treatment in the art. Therefore, we have found the desired suitable animal model in Wistar rats with mammary tumours induced by benzidine.
20 female Wistar rats are treated with benzidine. The first benzidine dose is 150 mg/kg; then the doses are reduced to weekly 100 mg/kg. Then doses per 75 mg/kg follow within a gap of 14 days. There from a total dose of 1.225 g/kg results.
In total 29 mammary carcinomas are generated. […]
After the first tumour is generated (about 0.5 g) the benzidine application is stopped. […] The tumour size is determined tactually; experienced experimenters can determine it precisely to 0.1 g. […]

CN(C)/N=N/c1ccc2c(c1)CCC1C2CCC2(C)C(=O)CCC12 (stereo not shown) [Example 11, 3-(1,1-dimethyltriazenyl)-estrone]
effect against mammary carcinoma of the rat: very good effect at low dosage
